# Patent US20240390438A1, “PROBIOTICS SEPARATED FROM RABBIT FECES AND FOOD CONTAINING PROBIOTICS” (AGENT Innovation Co., Ltd., priority 2021, published 2024)
# Read-outs that look alike come from different tables or passages of the source.
# Experiments:
# [1] = system: Colony PTA22; experiment: Antibiotic susceptibility test; format: cell-based, Lactiplantibacillus Plantarum; details: for MIC: Lactiplantibacillus plantarum, PTA22, 24 h; for Minimum inhibitory concentration of the antibiotic to PTA22: 96-well, 37 C 24 h, OD600
# Source text: (§1) To test bacterial susceptibility to antibiotics, such as Aminoglycosides antibiotics, Sulfonamide antibiotics, Quinolone antibiotics, Ampicillin, Cefotaxime, Chloramphenicol, Erythromycin, Rifampicin and Tetracycline, the experimental protocol were as follow. Further, the Quinolone antibiotics comprise Ciprofloxacin, the Aminoglycosides antibiotics comprise Kanamycin and […], and the Sulfonamide antibiotics comprise Sulfamethoxazole. […] The initial absorbance at 600 nm (OD600) of each well was recorded. Then, the 96-well plates were placed at 37° C. and cultured for 24 hours. Next, the OD600 of each well was measured again to determine minimum inhibitory concentration.
# [2] = system: Colony LP2; experiment: Antibiotic susceptibility test; format: cell-based, Lactiplantibacillus Plantarum; details: for MIC: Lactiplantibacillus plantarum, LP2, 24 h, read-out: Minimum inhibitory concentration of the antibiotic to LP2
# Source text: as §1
# [3] = system: Colony LP19; experiment: Antibiotic susceptibility test; format: cell-based, Lactiplantibacillus Plantarum; details: for MIC: Lactiplantibacillus plantarum, LP19, 24 h; for Minimum inhibitory concentration of the antibiotic to LP19: 96-well, 37 C 24 h, OD600
# Source text: as §1
# [4] = system: Colony LP1; experiment: Antibiotic susceptibility test; format: cell-based, Lactiplantibacillus Plantarum; details: for MIC: Lactiplantibacillus plantarum, LP1, 24 h; for Minimum inhibitory concentration of the antibiotic to LP1: 96-well, 37 C 24 h, OD600
# Source text: as §1
# [5] = system: Colony LP5; experiment: Antibiotic susceptibility test; format: cell-based, Lactiplantibacillus Plantarum; details: for MIC: Lactiplantibacillus plantarum, LP5, 24 h; for Minimum inhibitory concentration of the antibiotic to LP5: 96-well, 37 C 24 h, OD600
# Source text: as §1
# [6] = system: L. plantarum 299v; details: from Klarin et al., 2019; cited from earlier work
# [7] = system: L. plantarum 299; details: from Klarin et al., 2019; cited from earlier work
# [8] = system: L. pl 24-2L; details: from Georgieva et al., 2015; cited from earlier work
# [9] = system: L. pl 24-5D; details: from Georgieva et al., 2015; cited from earlier work
# [10] = system: species L. plantarum; details: EFSA (2005); cited from earlier work
# [11] = system: Klebsiella pneumoniae; experiment: Minimum inhibitory concentration and minimum bacterial concentration; format: cell-based; details: antibiotics
# Experimental: (§2) Minimum inhibitory concentration (MIC) refers to the minimum concentration at which the development of bacteria can be blocked and antibacterial resistance can be observed after cultured. The lower MIC means the better effect on bacteria.
# (§3) The supernatants of the cultured colonies described above were collected, as cell-free solutions (CFSs), by centrifuge at 5000 rpm after cultured the colonies in a nutrient broth and shaking at 37° C. for 48 hours.
# (§4) Next, 100 μL each of the CFSs and 100 μL bacterial solutions of the pathogenic bacteria were respectively added to each well of a 96-well plate. Thus, the total volume in each well was 200 μL. The tested pathogenic bacteria included Salmonella enterica, Shigella sonnei, Klebsiella pneumoniae, Streptococcus pneumoniae, Bacillus cereus, Staphylococcus aureus, Pseudomonas aeruginosa, and Escherichia coli.
# (§5) As well, 100 μL each of the nutrient broth containing Ampicillin or Kanamycin and 100 μL bacterial solutions of the pathogenic bacteria were respectively added to each well of a 96-well plate. Thus, the total volume in each well was 200 μL.
# (§6) Then, initial values of OD600 in each well were recorded. Subsequently, the 96-well plates were cultured at 37° C. for 24 hours, and the OD600 values thereof were re-recorded for determining the MICs of each colony described above.
# (§7) Finally, 100 μL CFSs of the next three concentrations […] MIC were taken to be plated on nutrient agar and then cultured at 37° C. for 48-72 hours. The concentrations of the CFSs that no colonies grown on nutrient agar were determined to be the minimum bacterial concentration (MBCs).
# [12] = system: Shigella sonnei; experiment: as above; format: cell-based; details: antibiotics
# Experimental: as §2, §3, §4, §5, §6, §7
# [13] = system: Streptococcus pneumoniae; experiment: as above; format: cell-based; details: antibiotics
# Experimental: as §2, §3, §4, §5, §6, §7
# [14] = system: Bacillus cereus; experiment: as above; format: cell-based; details: antibiotics
# Experimental: as §2, §3, §4, §5, §6, §7
# [15] = system: Staphylococcus aureus; experiment: as above; format: cell-based; details: antibiotics
# Experimental: as §2, §3, §4, §5, §6, §7
# [16] = system: Escherichia coli (ETEC); experiment: as above; format: cell-based; details: antibiotics
# Experimental: as §2, §3, §4, §5, §6, §7
# [17] = system: Pseudomonas aeruginosa; experiment: as above; format: cell-based; details: antibiotics
# Experimental: as §2, §3, §4, §5, §6, §7
# [18] = read-out: Minimum inhibitory concentration of the antibiotic to PTA22, 96-well, 37 C 24 h, OD600
# [19] = read-out: Minimum inhibitory concentration of the antibiotic to LP19, 96-well, 37 C 24 h, OD600
# [20] = read-out: Minimum inhibitory concentration of the antibiotic to LP1, 96-well, 37 C 24 h, OD600
# [21] = read-out: Minimum inhibitory concentration of the antibiotic to LP5, 96-well, 37 C 24 h, OD600
# [22] = plated on nutrient agar 48-72 h
SMILES,"MIC [1, 18]","MIC ([2]; 96-well, 37 C 24 h, OD600)","MIC [3, 19]","MIC [4, 20]","MIC [5, 21]",Minimum inhibitory concentration of the antibiotic to L. plantarum 299v [6],Minimum inhibitory concentration of the antibiotic to L. plantarum 299 [7],Minimum inhibitory concentration of the antibiotic to PTA22 [1],"Minimum inhibitory concentration of the antibiotic to LP2 ([2]; 96-well, 37 C 24 h, OD600)",Minimum inhibitory concentration of the antibiotic to LP19 [3],Minimum inhibitory concentration of the antibiotic to LP1 [4],Minimum inhibitory concentration of the antibiotic to LP5 [5],Minimum inhibitory concentration of the antibiotic to L. pl 24-2L [8],Minimum inhibitory concentration of the antibiotic to L. pl 24-5D [9],other results
CO/N=C(\C(=O)N[C@@H]1C(=O)N2C(C(=O)O)=C(COC(C)=O)CS[C@H]12)c1csc(N)n1 [Cefotaxime],< 0.125 µg/mL,< 0.125 µg/mL,< 0.125 µg/mL,< 0.125 µg/mL,< 0.125 µg/mL,0.094 µg/mL,0.094 µg/mL,,,,,,,,
CN[C@H](CC(C)C)C(=O)N[C@H]1C(=O)N[C@@H](CC(N)=O)C(=O)N[C@H]2C(=O)N[C@H]3C(=O)N[C@H](C(=O)N[C@H](C(=O)O)c4cc(O)cc(O)c4-c4cc3ccc4O)[C@H](O)c3ccc(c(Cl)c3)Oc3cc2cc(c3O[C@@H]2O[C@H](CO)[C@@H](O)[C@H](O)[C@H]2O[C@H]2C[C@](C)(N)[C@H](O)[C@H](C)O2)Oc2ccc(cc2Cl)[C@H]1O [Vancomycin],,,,,,>256 µg/mL,>256 µg/mL,>256 µg/mL,>256 µg/mL,>256 µg/mL,>256 µg/mL,>256 µg/mL,>256 µg/mL,>256 µg/mL,MIC ([1]; read-out: Minimum inhibitory concentration of the antibiotic to PTA22): > 256 µg/mL; MIC [2]: > 256 µg/mL; MIC ([3]; read-out: Minimum inhibitory concentration of the antibiotic to LP19): > 256 µg/mL; MIC ([4]; read-out: Minimum inhibitory concentration of the antibiotic to LP1): > 256 µg/mL; MIC ([5]; read-out: Minimum inhibitory concentration of the antibiotic to LP5): > 256 µg/mL
CC[C@H]1OC(=O)[C@H](C)[C@@H](O[C@H]2C[C@@](C)(OC)[C@@H](O)[C@H](C)O2)[C@H](C)[C@@H](O[C@@H]2O[C@H](C)C[C@H](N(C)C)[C@H]2O)[C@](C)(O)C[C@@H](C)C(=O)[C@H](C)[C@@H](O)[C@]1(C)O [Erythromycin],4 µg/mL,2 µg/mL,2 µg/mL,1 µg/mL,2 µg/mL,1 µg/mL,0.75 µg/mL,,,,,,0.75 µg/mL,0.75 µg/mL,"EFSA, MIC breakpoints species L. plantarum [10]: 4 µg/mL"
CCN1CCN(c2cc3c(cc2F)c(=O)c(C(=O)O)cn3C2CC2)CC1 [Enrofloxacin],64 µg/mL,64 µg/mL,64 µg/mL,64 µg/mL,64 µg/mL,,,,,,,,,,"MIC ([11]; 37 C 24 h, OD600): 32 µg/mL; MBC [11, 22]: 32 µg/mL; MIC ([12]; 37 C 24 h, OD600): < 0.125 µg/mL; MBC [12, 22]: < 0.125 µg/mL; MIC ([13]; 37 C 24 h, OD600): 0.25 µg/mL; MBC [13, 22]: 0.5 µg/mL; MIC ([14]; 37 C 24 h, OD600): 8 µg/mL; MBC [14, 22]: 8 µg/mL; MIC ([15]; 37 C 24 h, OD600): 1 µg/mL; MBC [15, 22]: 1 µg/mL; MIC ([16]; 37 C 24 h, OD600): 4 µg/mL; MBC [16, 22]: 8 µg/mL; MIC ([17]; 37 C 24 h, OD600): 16 µg/mL; MBC [17, 22]: 16 µg/mL"
Cc1cc(NS(=O)(=O)c2ccc(N)cc2)no1 [Sulfamethoxazole],> 256 µg/mL,> 256 µg/mL,> 256 µg/mL,> 256 µg/mL,> 256 µg/mL,,,>256 µg/mL,>256 µg/mL,>256 µg/mL,>256 µg/mL,>256 µg/mL,,,
